The results in this text go back to patent publication US9586963B2 (GENFIT, priority 2011, dated 2017).

One series has as its target T1, Rev-Erb alpha (Homo sapiens, UniProt P20393).
T1 sequence (P20393 284-614 limits assumed): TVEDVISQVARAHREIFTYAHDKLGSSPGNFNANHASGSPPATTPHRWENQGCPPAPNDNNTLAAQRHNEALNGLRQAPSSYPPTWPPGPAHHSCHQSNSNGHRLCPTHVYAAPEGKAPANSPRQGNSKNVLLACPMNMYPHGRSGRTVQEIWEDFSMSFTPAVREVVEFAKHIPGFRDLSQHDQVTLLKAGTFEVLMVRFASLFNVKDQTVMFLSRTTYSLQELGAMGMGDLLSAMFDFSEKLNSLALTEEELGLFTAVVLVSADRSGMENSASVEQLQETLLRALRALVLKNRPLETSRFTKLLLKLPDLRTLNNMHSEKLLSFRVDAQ
The series is described as follows: M2H (mammalian two-hybrid) cellular activation assay of Rev-Erb alpha. It is filed as cell-based. The following applies: M2H assay, HEK293 cells; for EC50: Gal4-Rev-Erb alpha / VP16-NCoR, luciferase reporter; for Emax: relative to DMSO, at the tested dose, read-out: TOP activation. The procedure, abridged:
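Six-point dose-response, 18 h, 37 °C, serum-free, in HEK293 cells carrying a Gal4-RE luciferase reporter with Gal4-Rev-Erb alpha or beta plus VP16-NCoR (corepressor interaction readout). EC50 and TOP activation (%) derived from luminescence across four experiments.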

Broadly, the melting point is the temperature, or range, at which the solid turns liquid. Broadly, the EC50 is the midpoint of the concentration-response curve.

The compound `COC(=O)CCNc1ccc(Oc2ccc3nnc(Cl)n3n2)c(-c2ccccc2)c1` [Cpd.4-190, 3-chloro-6-(5-methyloxycarbonylethylamino-biphenyl-2-yloxy)-[1,2,4]triazolo[4,3-b]pyridazine] showed a melting point of 52 to 57 °C. Besides, at Rev-Erb alpha, the EC50 was in the range of 1000 to 6000 nM.
In turn, `CCC(=O)Nc1ccc(Oc2ccc3nnc(Cl)n3n2)c(-c2ccccc2)c1` [Cpd.4-191, 3-chloro-6-(5-ethylcarbonylamino-biphenyl-2-yloxy)-[1,2,4]triazolo[4,3-b]pyridazine] showed a melting point of 163 to 165 °C. Besides, the EC50 at Rev-Erb alpha was in the range of 1000 to 6000 nM.
`COc1ncc(F)cc1-c1ccc(C(F)(F)F)cc1Oc1cc(C)c2nnc(Cl)n2n1` [Cpd.4-193, 3-chloro-8-methyl-6-((2-(2-methoxy-5-fluoropyridin-3-yl))-5-(trifluoromethyl)-phenoxy)-[1,2,4]triazolo[4,3-b]pyridazine]: the melting point was 130 to 132 °C. Also, the EC50 at Rev-Erb alpha was 100 to 1000 nM.
As for `Clc1ccc(Oc2ccc3nnc(Cl)n3n2)c(-c2cncnc2)c1` [Cpd.4-194, 3-chloro-6-(4-chloro-2-(pyrimidin-5-yl)phenoxy)-[1,2,4]triazolo[4,3-b]pyridazine], the melting point is 152 to 155 °C. For the same compound, at Rev-Erb alpha, the EC50 was more than 6000 nM and the Emax was more than 130%.
`COc1ncc(-c2cc(Cl)ccc2Oc2ccc3nnc(Cl)n3n2)cn1` [Cpd.4-195, 3-chloro-6-(4-chloro-2-(2-methoxypyrimidin-5-yl)phenoxy)-[1,2,4]triazolo[4,3-b]pyridazine]: the melting point fell in the range of 210 to 211 °C. In addition, on Rev-Erb alpha, the EC50 was more than 6000 nM and the Emax was more than 130%.
Take `Cc1ccc(-c2ccc(C(F)(F)F)cc2Oc2ccc3nnc(Cl)n3n2)cn1` [Cpd.4-196, 3-chloro-6-(2-(6-methylpyridin-3-yl)-5-(trifluoromethyl)phenoxy)-[1,2,4]triazolo[4,3-b]pyridazine]: the melting point was 212 to 214 °C. The compound further yielded an EC50 at Rev-Erb alpha of 1000 to 6000 nM.
Regarding `Fc1ccc2c(c1)c(Oc1cc(C(F)(F)F)ccc1-c1ccccc1)nn1c(Cl)nnc21` [Cpd.5-3, 3-chloro-6-(4-trifluoromethyl-biphenyl-2-yloxy)-8-fluoro-[1,2,4]triazolo[3,4-a]phthalazine], the melting point lay in the range of 213 to 215 °C. Besides, on Rev-Erb alpha, the EC50 lay in the range of 100 to 1000 nM.
Compound `FC(F)(F)c1ccc(-c2ccccc2)c(Oc2nn3c(Cl)nnc3cc2-c2ccccc2)c1` [Cpd.5-5, 3-chloro-7-phenyl-6-(4-trifluoromethyl-biphenyl-2-yloxy)-[1,2,4]triazolo[4,3-b]pyridazine] registered a melting point of 190 to 192 °C. The EC50 at Rev-Erb alpha is 100 to 1000 nM.
Consider `Cc1cc(Oc2cc(C(F)(F)F)ccc2-c2ccccc2)nn2c(Cl)nnc12` [Cpd.5-6, 3-chloro-8-methyl-6-(4-trifluoromethyl-biphenyl-2-yloxy)-[1,2,4]triazolo[4,3-b]pyridazine], for which the melting point is 169 to 172 °C. In addition, at Rev-Erb alpha, the EC50 is less than 100 nM.
`Cc1cc2nnc(Cl)n2nc1Oc1cc(C(F)(F)F)ccc1-c1ccccc1` [Cpd.5-7, 3-chloro-7-methyl-6-(4-trifluoromethyl-biphenyl-2-yloxy)-[1,2,4]triazolo[4,3-b]pyridazine] returned a melting point of 163 to 165 °C. Further, the EC50 at Rev-Erb alpha is 100 to 1000 nM.
`Cc1ccc2c(Oc3cc(C(F)(F)F)ccc3-c3ccccc3)nn3c(Cl)nnc3c2c1` [Cpd.5-9, 3-chloro-6-(4-trifluoromethyl-biphenyl-2-yloxy)-9-methyl-[1,2,4]triazolo[3,4-a]phthalazine] came in with a melting point of 229 to 231 °C. In addition, on Rev-Erb alpha, the EC50 was in the range of 100 to 1000 nM.
With `Cc1ccc2c(c1)c(Oc1cc(C(F)(F)F)ccc1-c1ccccc1)nn1c(Cl)nnc21` [Cpd.5-10, 3-chloro-6-(4-trifluoromethyl-biphenyl-2-yloxy)-8-methyl-[1,2,4]triazolo[3,4-a]phthalazine], the melting point was 195 to 197 °C. The same compound returned an EC50 on Rev-Erb alpha of 100 to 1000 nM.
`CC(C)c1cc2nnc(Cl)n2nc1Oc1cc(C(F)(F)F)ccc1-c1ccccc1` [Cpd.5-11, 3-chloro-7-isopropyl-6-(4-trifluoromethyl-biphenyl-2-yloxy)-[1,2,4]triazolo[4,3-b]pyridazine]: the melting point fell in the range of 55 to 58 °C. The compound also returned an EC50 at Rev-Erb alpha of 100 to 1000 nM.
Compound `CCc1cc(Oc2cc(C(F)(F)F)ccc2-c2ccccc2)nn2c(Cl)nnc12` [Cpd.5-13, 3-chloro-8-ethyl-6-(4-trifluoromethyl-biphenyl-2-yloxy)-[1,2,4]triazolo[4,3-b]pyridazine] yielded a melting point of 139.5 to 141.8 °C. The same compound had an EC50 on Rev-Erb alpha of 100 to 1000 nM.
For `FC(F)(F)c1ccc(-c2cccnc2)c(Oc2nn3c(Cl)nnc3c3ccccc23)c1` [Cpd.5-15, 3-chloro-6-(2-(pyridin-3-yl)-5-(trifluoromethyl)phenoxy)-[1,2,4]triazolo[3,4-a]phthalazine] the same measures were 175 to 177 °C and less than 100 nM.
In turn, `COc1ncccc1-c1ccc(C(F)(F)F)cc1Oc1cc(C)c2nnc(Cl)n2n1` [Cpd.5-23, 3-chloro-6-(2-(2-methoxypyridin-3-yl)-5-(trifluoromethyl)phenoxy)-8-methyl-[1,2,4]triazolo[4,3-b]pyridazine] yielded a melting point of 156 to 158 °C. The compound further registered an EC50 at Rev-Erb alpha of 1000 to 6000 nM.
In the case of `COc1ncccc1-c1ccc(C(F)(F)F)cc1Oc1nn2c(Cl)nnc2cc1C` [Cpd.5-24, 3-chloro-7-methyl-6-((2-(2-methoxypyridin-3-yl))-5-(trifluoromethyl)phenoxy)-[1,2,4]triazolo[4,3-b]pyridazine], the melting point lay within 176 to 178 °C. Also, the EC50 at Rev-Erb alpha lay in the range of 1000 to 6000 nM.
With `COc1ncc(C(F)(F)F)cc1-c1ccc(C(F)(F)F)cc1Oc1nn2c(Cl)nnc2cc1C` [Cpd.5-26, 3-chloro-7-methyl-6-((2-(2-methoxy-5-(trifluoromethyl)pyridin-3-yl))-5-(trifluoromethyl)phenoxy)-[1,2,4]triazolo[4,3-b]pyridazine], the melting point lay within 194 to 196 °C. Moreover, the EC50 on Rev-Erb alpha was in the range of 1000 to 6000 nM.
`COc1ncc(C)cc1-c1ccc(C(F)(F)F)cc1Oc1cc(C)c2nnc(Cl)n2n1` [Cpd.5-27, 3-chloro-8-methyl-6-((2-(2-methoxy-5-methylpyridin-3-yl))-5-(trifluoromethyl)phenoxy)-[1,2,4]triazolo[4,3-b]pyridazine] gave a melting point of 117 to 119 °C. The concentration giving a half-maximal response (EC50) on Rev-Erb alpha fell in the range of 1000 to 6000 nM.
For `Cc1cc(Oc2cc(C(F)(F)F)ccc2-c2cccnc2)nn2c(C(F)(F)F)nnc12` [Cpd.5-32, 8-methyl-6-(2-(pyridin-3-yl)-5-(trifluoromethyl)phenoxy)-3-(trifluoromethyl)-[1,2,4]triazolo[4,3-b]pyridazine], the melting point lay within 151 to 153 °C. Moreover, at Rev-Erb alpha, the EC50 is more than 6000 nM and the Emax is more than 130%.
`Cc1cc2nnc(C(F)(F)F)n2nc1Oc1cc(C(F)(F)F)ccc1-c1cccnc1` [Cpd.5-33, 7-methyl-6-(2-(pyridin-3-yl)-5-(trifluoromethyl)phenoxy)-3-(trifluoromethyl)-[1,2,4]triazolo[4,3-b]pyridazine] displayed a melting point of 173 to 175 °C. The compound further showed an EC50 on Rev-Erb alpha of 1000 to 6000 nM.
Compound `Cc1ncc(-c2ccc(C(F)(F)F)cc2Oc2cc(C)c3nnc(Cl)n3n2)cn1` [Cpd.5-37, 3-chloro-8-methyl-6-((2-(2-methylpyrimidin-5-yl))-5-(trifluoromethyl)phenoxy)-[1,2,4]triazolo[4,3-b]pyridazine] returned a melting point of 200 to 202 °C. Besides, the concentration giving a half-maximal response (EC50) on Rev-Erb alpha lay within 1000 to 6000 nM.
In turn, `COc1nccc(C)c1-c1ccc(C(F)(F)F)cc1Oc1cc(C)c2nnc(Cl)n2n1` [Cpd.5-39, 3-chloro-8-methyl-6-((2-(2-methoxy-4-methylpyridin-3-yl))-5-(trifluoromethyl)phenoxy)-[1,2,4]triazolo[4,3-b]pyridazine] yielded a melting point of 139 to 141 °C. Moreover, the EC50 on Rev-Erb alpha was 1000 to 6000 nM.
In the case of `COc1nccc(C)c1-c1ccc(C(F)(F)F)cc1Oc1nn2c(Cl)nnc2cc1C` [Cpd.5-40, 3-chloro-7-methyl-6-((2-(2-methoxy-4-methylpyridin-3-yl))-5-(trifluoromethyl)phenoxy)-[1,2,4]triazolo[4,3-b]pyridazine], the melting point was in the range of 161 to 162 °C. Further, the EC50 on Rev-Erb alpha fell in the range of 1000 to 6000 nM.
For `COc1ncc(F)cc1-c1ccc(C(F)(F)F)cc1Oc1nn2c(Cl)nnc2cc1C` [Cpd.5-41, 3-chloro-7-methyl-6-((2-(2-methoxy-5-fluoropyridin-3-yl))-5-(trifluoromethyl)phenoxy)-[1,2,4]triazolo[4,3-b]pyridazine], in that order: 163 to 166 °C and 100 to 1000 nM.
`CCc1nnc2cc(C)c(Oc3cc(C(F)(F)F)ccc3-c3cncnc3)nn12` [Cpd.5-43, 3-ethyl-7-methyl-6-(2-(pyrimidin-5-yl)-5-(trifluoromethyl)phenoxy)-[1,2,4]triazolo[4,3-b]pyridazine]: the melting point was in the range of 149 to 150 °C. The concentration for a half-maximal effect (EC50) on Rev-Erb alpha is 1000 to 6000 nM.
Turning to `Cc1cc2nncn2nc1Oc1cc(C(F)(F)F)ccc1-c1cncnc1` [Cpd.5-44, 7-methyl-6-(2-(pyrimidin-5-yl)-5-(trifluoromethyl)phenoxy)-[1,2,4]triazolo[4,3-b]pyridazine], the melting point lay in the range of 179 to 181 °C. For the same compound, on Rev-Erb alpha, the 50% effective concentration (EC50) is more than 6000 nM and the Emax was more than 130%.
